Results taken from ChEMBL document CHEMBL1201862, “PubChem BioAssay data set” (2004).
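Cells were grown in 96-well plates and exposed to each compound for 48 hours at five concentrations; endpoints were interpolated linearly between bracketing concentrations, or set to the highest concentration if not reached. GI50 is the concentration that inhibits growth by half.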 Active and inactive are the calls of the source. Cut-off read from the data, not from the text of the source: active = GI50 up to about 1.1 µM and inactive = higher.

How the values were obtained:
Assay in all cases: NCI tumour cell line growth inhibition, 48 h
LOX IMVI = test system: LOX IMVI
OVCAR-8 = test system: OVCAR-8
T47D = test system: T47D
RXF 393 = test system: RXF 393
HOP-62 = test system: HOP-62
UACC-257 = test system: UACC-257
NCI-H522 = test system: NCI-H522
CCRF-CEM = test system: CCRF-CEM
TK-10 = test system: TK-10
MCF7 = test system: MCF7
EKVX = test system: EKVX
HL-60 = test system: HL-60
NCI-H226 = test system: NCI-H226
NCI/ADR-RES = test system: NCI/ADR-RES
Hs-578T = test system: Hs-578T
SNB-19 = test system: SNB-19
MDA-N = test system: MDA-N
HOP-92 = test system: HOP-92
SF-295 = test system: SF-295
HCC 2998 = test system: HCC 2998

Measured: GI50

COC(=O)C(Cc1ccc2c(c1)CCC2)Cc1ccc2c(c1)CCC2
inactive: LOX IMVI 20.8 µM | OVCAR-8 53.6 µM | T47D 20.9 µM | RXF 393 31 µM | HOP-62 > 100 µM | UACC-257 37 µM | NCI-H522 32.9 µM | CCRF-CEM 32.4 µM | TK-10 > 100 µM | MCF7 31.5 µM | EKVX 44.8 µM | HL-60 23 µM | NCI-H226 42.5 µM | NCI/ADR-RES > 100 µM | Hs-578T > 100 µM | SNB-19 > 100 µM | MDA-N 59.3 µM | HOP-92 31.3 µM | SF-295 36.6 µM

COC(=O)c1cc(NC(=O)Cc2c[nH]c3ccccc23)cn1C
inactive: LOX IMVI 58.3 µM | OVCAR-8 66.5 µM | HCC 2998 68.1 µM | T47D > 100 µM | RXF 393 > 100 µM | HOP-62 88.1 µM | UACC-257 > 100 µM | NCI-H522 36.1 µM | CCRF-CEM 45.3 µM | TK-10 87.9 µM | MCF7 60.8 µM | EKVX > 100 µM | HL-60 > 100 µM | NCI-H226 21.7 µM | NCI/ADR-RES > 100 µM | Hs-578T 33.7 µM | SNB-19 70 µM | MDA-N > 100 µM | SF-295 > 100 µM

C[C@@H](c1ccccc1)N1CN(C(=O)OCc2ccccc2)C(CO)C1=O (stereo partly specified)
inactive: LOX IMVI > 100 µM | OVCAR-8 > 100 µM | HCC 2998 > 100 µM | T47D > 100 µM | RXF 393 61.1 µM | HOP-62 > 100 µM | UACC-257 95.7 µM | NCI-H522 > 100 µM | CCRF-CEM 67 µM | TK-10 > 100 µM | MCF7 47.2 µM | EKVX 71.1 µM | HL-60 > 100 µM | NCI-H226 > 100 µM | NCI/ADR-RES > 100 µM | Hs-578T > 100 µM | SNB-19 > 100 µM | MDA-N > 100 µM | SF-295 > 100 µM

N=C/N=C/C(=S)O[C@@H]1C(=O)N2CCC[C@@]23CCCC[C@@H]13
inactive: LOX IMVI > 12.5 µM | OVCAR-8 > 12.5 µM | HCC 2998 > 12.5 µM | T47D > 12.5 µM | RXF 393 > 12.5 µM | HOP-62 > 12.5 µM | UACC-257 > 12.5 µM | NCI-H522 > 12.5 µM | CCRF-CEM > 12.5 µM | TK-10 > 12.5 µM | MCF7 > 12.5 µM | EKVX > 12.5 µM | HL-60 > 12.5 µM | NCI-H226 > 12.5 µM | NCI/ADR-RES > 12.5 µM | Hs-578T > 12.5 µM | SNB-19 > 12.5 µM | MDA-N > 12.5 µM | SF-295 > 12.5 µM
